Measurements reported in patent US6596258B1, “Method of obtaining extracellular and intracellular pH images and spectra by magnetic resonance using extrinsic indicators containing 1H or 19F” (Universidad Nacional de Educacion a Distancia, priority 1997, dated 2003).

Columns and labels:
[1] = tested on: NIH 3T3 mouse fibroblasts; test: Toxicity in cell culture (cell survival after 72 h incubation); details: for Cell survival (average optical density, an index of cell number): NIH 3T3, mean±SD of four determinations
Method: NIH 3T3 mouse fibroblasts were grown in Dulbecco modified essential medium (DMEM) supplemented with 10% fetal calf serum (FCS, Hyclone, Logan, Utah, USA).
Results represent the mean±SD of four determinations from different culture dishes at each concentration.

[2] = Kinetics of tissue uptake after intravenous injection, 1H NMR of perchloric acid organ extracts; details: Wistar rats, 1 mmol intravenous
[3] = Plasma kinetics after intravenous (jugular vein) injection, 1H NMR of plasma; details: male Wistar rats
Male Swiss albino mice = test: Toxicity (LD50) in intact animals, intraperitoneal, method of Miller and Tainter; details: doses as high as 3 g/Kg of body weight
Excerpt: At least seven different doses, each one of then administered to six mice, which were kept in different cages, were used for each compound.

[4] = injection into right jugular vein

| Structure (SMILES) | Cell survival (average optical density, an index of cell number) ([1]; 1.0 mM compound) | Cell survival (average optical density, an index of cell number) ([1]; 5.0 mM compound) | Cell survival (average optical density, an index of cell number) ([1]; 10.0 mM compound) | Cell survival (average optical density, an index of cell number) ([1]; 20.0 mM compound) | Toxicity in cell culture (in words) ([1]; NIH 3T3, 0 to 20 mM) | Concentration reached in brain [2] | Concentration reached in heart [2] | Concentration reached in kidney [2] | Concentration reached in liver [2] | Concentration reached in skeletal muscle [2] | Time of peak concentration in kidney [2] [min] | Time of peak concentration in skeletal muscle [2] [min] | Clearance from plasma, t1/2 [3, 4] [min] | Highest concentration in plasma [3, 4] [mM] | Time after injection at which highest plasma concentration was attained [3, 4] [min] | Signs of toxicity during the pharmacokinetic experiment ([3]; intravenous injection) | Toxicity in intact animals (in words) (Male Swiss albino mice) |
| --- | --- | --- | --- | --- | --- | --- | --- | --- | --- | --- | --- | --- | --- | --- | --- | --- | --- |
| CCOC(=O)CC(C(=O)O)n1ccnc1 (racemic) [Compound 9, (±)-3-(etoxycarbonyl)-2-imidazol-1-ilpropionic acid] | 1.68 ± 0.04 | 1.38 ± 0.06 | 1.52 ± 0.13 | 1.54 ± 0.09 | did not exhibit any toxicity | absent | < 0.5 μmol/g of body weight | 13.9 μmol/g of body weight | < 0.2 μmol/g of body weight | 5.8 μmol/g of body weight | 10 | 20 | 6 | 6.6 | 1 | No signs of toxicity were detected | did not exhibit any toxicity |
| c1c[nH]cn1 [Compound 1, Imidazol] |  |  |  |  |  |  |  | 12.1 μmol/g of body weight |  | 5.3 μmol/g of body weight | 30 | 10 to 20 |  |  |  |  |  |
